Assay results published in paper PMC6522981, “Structure-based design generated novel hydroxamic acid based preferential HDAC6 lead inhibitor with on-target cytotoxic activity against primary choroid plexus carcinoma” (Journal of Enzyme Inhibition and Medicinal Chemistry, 2019).
“Also recorded” adds a separate entry of the source.

What was measured:
[1] = target: T1, human HDAC11 (Homo sapiens, UniProt Q96DB2); test: HDAC11 inhibitor enzymatic assay, % inhibition at fixed concentration; settings: read-out: %inhibition of HDACs at 10µM of test compound HDAC11
T1 sequence (Q96DB2 1-347): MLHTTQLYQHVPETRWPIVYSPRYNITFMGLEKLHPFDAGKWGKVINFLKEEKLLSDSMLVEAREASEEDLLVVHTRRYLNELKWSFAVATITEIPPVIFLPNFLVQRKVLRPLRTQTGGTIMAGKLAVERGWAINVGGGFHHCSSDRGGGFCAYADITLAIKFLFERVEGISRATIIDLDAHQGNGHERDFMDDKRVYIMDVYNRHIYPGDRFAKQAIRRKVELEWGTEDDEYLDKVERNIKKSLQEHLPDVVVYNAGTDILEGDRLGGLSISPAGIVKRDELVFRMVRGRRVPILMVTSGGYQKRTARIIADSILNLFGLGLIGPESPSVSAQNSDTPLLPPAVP

[2] = target: human HDAC4 (Homo sapiens, UniProt P56524); test: HDAC4 inhibitor enzymatic assay, % inhibition at fixed concentration; settings: read-out: %inhibition of HDACs at 10µM of test compound HDAC4
[3] = target: T2, human HDAC2 (Homo sapiens, UniProt Q92769); test: HDAC2 inhibitor enzymatic assay, % inhibition at fixed concentration; assay type: biochemical; settings: read-out: %inhibition of HDACs at 10µM of test compound HDAC2; 10 µM compound; mean of two replicates
T2 construct: purchased BPS Bioscience 50002

[4] = target: T3, human HDAC8 (Homo sapiens, UniProt Q9BY41); test: HDAC8 inhibitor enzymatic assay, % inhibition at fixed concentration; assay type: biochemical; settings: read-out: %inhibition of HDACs at 10µM of test compound HDAC8; 10 µM compound
T3 construct: purchased BPS Bioscience 50008
T3 sequence (Q9BY41 1-377): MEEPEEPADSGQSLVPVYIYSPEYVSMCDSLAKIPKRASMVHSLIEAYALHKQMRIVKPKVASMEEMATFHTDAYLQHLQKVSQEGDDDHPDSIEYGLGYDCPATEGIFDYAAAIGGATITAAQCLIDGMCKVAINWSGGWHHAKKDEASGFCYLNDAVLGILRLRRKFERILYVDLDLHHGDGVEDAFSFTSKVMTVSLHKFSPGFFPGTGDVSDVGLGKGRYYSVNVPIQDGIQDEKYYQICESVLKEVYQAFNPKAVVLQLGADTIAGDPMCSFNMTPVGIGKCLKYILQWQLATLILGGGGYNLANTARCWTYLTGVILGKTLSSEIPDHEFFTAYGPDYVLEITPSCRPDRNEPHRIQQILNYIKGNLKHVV

[5] = target: human HDAC5 (Homo sapiens, UniProt Q9UQL6); test: HDAC5 inhibitor enzymatic assay, % inhibition at fixed concentration; settings: read-out: %inhibition of HDACs at 10µM of test compound HDAC5
[6] = target: T4, human HDAC1 (Homo sapiens, UniProt Q13547); test: HDAC1 inhibitor enzymatic assay, % inhibition at fixed concentration (BPS Bioscience, fluorogenic); assay type: biochemical; settings: read-out: %inhibition of HDACs at 10µM of test compound HDAC1; 10 µM compound; mean of two replicates
T4 construct: purchased BPS Bioscience 50051

[7] = test system: acetylated α-tubulin in CCHE-45 cells; test: Western blot analysis of acetylated α-tubulin in CCHE-45 cells; assay type: cell-based; settings: 100 µM, 24 h
Method: CCHE-45 cells were treated with 100 µM of test compound for 24 h. HL60 cell line (a kind gift from Professor Azza Kamel from the National Cancer Institute, Cairo University); and is cultured in RPMI-1640 (Lonza, BE-12-702F) supplemented with 10% Fetal Bovine Serum (FBS, Gibco, 12483–020) and 100 U/ml penicillin and 100 µg/ml streptomycin (Lonza, DE17-602F), has also been treated with different concentrations of 10a in twofold serial dilutions for 24 h. Proteins were extracted from CCHE-45 cells using RIPA Lysis and Extraction Buffer (ThermoScientific, cat. No: 89901) containing 100x Halt Protease and […] Inhibitor Cocktail (ThermoScientific, cat. No. 78444). Followed by protein quantification using Bradford Reagent (Pierce Coomassie Plus (Bradford) Assay Reagent) (ThermoScientific, cat. No. 23238). A total of 50 µg proteins were loaded on a 10% SDS page using 30% Acrylamide/Bisacrylamide 19:1(Serva, cat. No. 10679.01) then transferred by semidry transfer method using Bio-Rad Trans-Blot Turbo transfer system on PVDF Transfer Membrane (ThermoScientific, cat. No. 88518). The membranes were incubated overnight at 4 °C in the primary antibodies Mouse monoclonal Anti-Beta Actin antibody (1:100, abcam, ab8224) and Mouse monoclonal Anti-acetylated α Tubulin (1:200, Santa Cruz Biotechnology, sc-23950). […]

[8] = target: T5, human HDAC7 (Homo sapiens, UniProt Q8WUI4); test: HDAC7 inhibitor enzymatic assay, % inhibition at fixed concentration; settings: read-out: %inhibition of HDACs at 10µM of test compound HDAC7
T5 sequence (Q8WUI4 479-952 limits assumed): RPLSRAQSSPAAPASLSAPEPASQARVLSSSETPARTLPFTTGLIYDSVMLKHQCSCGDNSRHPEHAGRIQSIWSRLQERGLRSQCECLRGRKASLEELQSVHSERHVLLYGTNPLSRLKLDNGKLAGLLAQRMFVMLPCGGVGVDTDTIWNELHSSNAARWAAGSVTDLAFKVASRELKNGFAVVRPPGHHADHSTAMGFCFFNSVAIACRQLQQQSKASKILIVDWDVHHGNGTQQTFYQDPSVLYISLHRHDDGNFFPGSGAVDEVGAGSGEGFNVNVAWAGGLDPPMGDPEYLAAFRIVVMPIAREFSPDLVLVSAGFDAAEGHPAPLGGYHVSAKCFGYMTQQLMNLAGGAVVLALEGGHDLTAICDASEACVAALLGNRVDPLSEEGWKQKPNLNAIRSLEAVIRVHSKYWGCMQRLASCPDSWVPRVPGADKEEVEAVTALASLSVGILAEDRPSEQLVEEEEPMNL

[9] = target: human HDAC3/NCOR2 (Homo sapiens, UniProt O15379); test: HDAC3/NCOR2 inhibitor enzymatic assay, % inhibition at fixed concentration; settings: read-out: %inhibition of HDACs at 10µM of test compound HDAC3
[10] = target: human HDAC9 (Homo sapiens, UniProt Q9UKV0); test: HDAC9 inhibitor enzymatic assay, % inhibition at fixed concentration; settings: read-out: %inhibition of HDACs at 10µM of test compound HDAC9
Chain of human HDAC9 (Q9UKV0 1-1066 isoform Q9UKV0-5): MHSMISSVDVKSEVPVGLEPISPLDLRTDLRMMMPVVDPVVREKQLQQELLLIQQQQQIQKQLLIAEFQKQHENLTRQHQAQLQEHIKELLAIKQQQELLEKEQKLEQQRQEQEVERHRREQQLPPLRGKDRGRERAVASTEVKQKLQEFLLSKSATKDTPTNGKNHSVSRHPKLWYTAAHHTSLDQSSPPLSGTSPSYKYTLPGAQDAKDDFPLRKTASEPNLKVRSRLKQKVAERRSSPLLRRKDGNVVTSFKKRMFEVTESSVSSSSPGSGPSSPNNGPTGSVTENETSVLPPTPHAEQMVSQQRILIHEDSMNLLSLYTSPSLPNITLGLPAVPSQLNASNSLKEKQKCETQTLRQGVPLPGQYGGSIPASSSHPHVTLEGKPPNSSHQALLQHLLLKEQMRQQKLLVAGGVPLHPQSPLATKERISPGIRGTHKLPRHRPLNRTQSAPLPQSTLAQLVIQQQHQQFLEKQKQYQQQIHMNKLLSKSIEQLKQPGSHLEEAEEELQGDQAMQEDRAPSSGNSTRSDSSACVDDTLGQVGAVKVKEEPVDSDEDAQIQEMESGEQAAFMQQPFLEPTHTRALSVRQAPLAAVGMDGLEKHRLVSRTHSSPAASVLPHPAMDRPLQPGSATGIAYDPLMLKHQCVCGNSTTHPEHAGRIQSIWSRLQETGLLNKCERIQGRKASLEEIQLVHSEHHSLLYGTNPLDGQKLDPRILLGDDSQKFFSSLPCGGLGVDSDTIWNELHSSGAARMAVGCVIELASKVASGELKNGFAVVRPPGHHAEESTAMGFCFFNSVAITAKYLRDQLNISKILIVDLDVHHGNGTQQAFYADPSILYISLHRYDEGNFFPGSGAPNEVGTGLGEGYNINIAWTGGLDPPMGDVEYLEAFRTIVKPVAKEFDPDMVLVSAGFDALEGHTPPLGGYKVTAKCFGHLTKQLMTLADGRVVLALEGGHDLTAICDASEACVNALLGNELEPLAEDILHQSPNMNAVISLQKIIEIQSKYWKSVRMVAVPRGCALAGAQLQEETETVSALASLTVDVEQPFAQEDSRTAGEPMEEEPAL

Chain of human HDAC3/NCOR2 (O15379 whole entry): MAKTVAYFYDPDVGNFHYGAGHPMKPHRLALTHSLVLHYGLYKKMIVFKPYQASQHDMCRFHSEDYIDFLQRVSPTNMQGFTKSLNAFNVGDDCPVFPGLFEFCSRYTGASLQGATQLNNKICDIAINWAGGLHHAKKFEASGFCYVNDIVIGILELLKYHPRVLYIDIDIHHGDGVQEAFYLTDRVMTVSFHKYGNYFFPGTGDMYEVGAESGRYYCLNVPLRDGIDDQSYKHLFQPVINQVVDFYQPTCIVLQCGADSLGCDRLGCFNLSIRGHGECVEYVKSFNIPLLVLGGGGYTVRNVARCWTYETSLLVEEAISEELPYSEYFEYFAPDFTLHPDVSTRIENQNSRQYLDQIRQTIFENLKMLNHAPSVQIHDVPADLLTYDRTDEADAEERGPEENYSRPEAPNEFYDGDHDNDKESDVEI
Chain of human HDAC3/NCOR2 (Q9Y618 395-489 partner limits assumed): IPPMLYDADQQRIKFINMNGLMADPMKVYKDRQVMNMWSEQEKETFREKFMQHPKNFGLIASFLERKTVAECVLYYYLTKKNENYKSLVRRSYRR
T4 sequence (Q13547 whole entry): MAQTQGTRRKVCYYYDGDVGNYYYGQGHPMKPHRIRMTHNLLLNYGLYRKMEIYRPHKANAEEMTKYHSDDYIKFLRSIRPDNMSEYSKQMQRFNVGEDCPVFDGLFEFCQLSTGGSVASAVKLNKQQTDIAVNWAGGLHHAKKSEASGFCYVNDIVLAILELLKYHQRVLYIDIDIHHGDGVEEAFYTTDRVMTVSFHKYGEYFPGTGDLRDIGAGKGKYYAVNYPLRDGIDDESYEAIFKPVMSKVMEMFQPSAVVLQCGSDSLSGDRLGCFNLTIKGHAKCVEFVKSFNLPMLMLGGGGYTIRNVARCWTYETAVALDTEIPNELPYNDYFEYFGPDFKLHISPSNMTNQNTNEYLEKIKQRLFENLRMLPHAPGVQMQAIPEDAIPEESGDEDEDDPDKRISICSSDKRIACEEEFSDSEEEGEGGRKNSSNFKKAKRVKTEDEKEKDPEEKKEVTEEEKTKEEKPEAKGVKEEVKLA
Chain of human HDAC5 (Q9UQL6 656-1122 limits assumed): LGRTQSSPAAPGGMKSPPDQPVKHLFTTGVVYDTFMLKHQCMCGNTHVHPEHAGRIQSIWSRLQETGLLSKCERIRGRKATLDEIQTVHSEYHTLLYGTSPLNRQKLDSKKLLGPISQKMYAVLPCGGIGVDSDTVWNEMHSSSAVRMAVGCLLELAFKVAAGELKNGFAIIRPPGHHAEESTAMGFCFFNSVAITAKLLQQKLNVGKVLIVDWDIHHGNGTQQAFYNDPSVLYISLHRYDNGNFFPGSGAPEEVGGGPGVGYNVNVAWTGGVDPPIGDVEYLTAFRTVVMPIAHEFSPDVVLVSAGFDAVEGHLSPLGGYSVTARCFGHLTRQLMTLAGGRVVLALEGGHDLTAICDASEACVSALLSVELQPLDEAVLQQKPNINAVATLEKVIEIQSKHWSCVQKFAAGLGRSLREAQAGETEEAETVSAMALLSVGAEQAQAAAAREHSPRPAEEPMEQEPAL
Chain of human HDAC4 (P56524 627-1084 limits assumed): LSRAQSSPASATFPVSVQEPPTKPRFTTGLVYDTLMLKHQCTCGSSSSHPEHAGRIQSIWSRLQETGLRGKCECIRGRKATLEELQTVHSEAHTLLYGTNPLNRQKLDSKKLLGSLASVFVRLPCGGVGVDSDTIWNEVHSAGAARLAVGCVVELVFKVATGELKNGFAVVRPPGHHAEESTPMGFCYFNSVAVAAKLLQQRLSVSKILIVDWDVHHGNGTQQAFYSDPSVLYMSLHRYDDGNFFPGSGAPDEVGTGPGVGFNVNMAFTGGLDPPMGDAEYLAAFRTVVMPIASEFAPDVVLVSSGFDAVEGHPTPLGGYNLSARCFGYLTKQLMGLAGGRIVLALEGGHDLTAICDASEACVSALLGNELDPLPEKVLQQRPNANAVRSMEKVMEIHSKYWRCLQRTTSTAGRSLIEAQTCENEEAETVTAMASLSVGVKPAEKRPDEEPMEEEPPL
T2 sequence (Q92769 whole entry): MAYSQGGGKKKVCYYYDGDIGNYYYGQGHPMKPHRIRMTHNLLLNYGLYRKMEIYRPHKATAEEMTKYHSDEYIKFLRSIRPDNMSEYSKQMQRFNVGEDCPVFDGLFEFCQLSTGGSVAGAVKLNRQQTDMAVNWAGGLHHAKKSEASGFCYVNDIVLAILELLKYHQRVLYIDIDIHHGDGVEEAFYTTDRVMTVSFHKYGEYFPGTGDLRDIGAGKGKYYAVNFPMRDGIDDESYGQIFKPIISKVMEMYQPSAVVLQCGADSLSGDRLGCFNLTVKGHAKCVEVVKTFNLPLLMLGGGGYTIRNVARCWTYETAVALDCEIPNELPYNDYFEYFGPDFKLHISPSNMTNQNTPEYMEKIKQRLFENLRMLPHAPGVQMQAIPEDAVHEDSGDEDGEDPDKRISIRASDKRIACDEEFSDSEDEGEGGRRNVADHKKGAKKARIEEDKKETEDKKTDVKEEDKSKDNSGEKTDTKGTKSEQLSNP

For O=C(CCCSc1nc2ccccc2n1Cc1ccccc1)NO [Compound 10a, 4-((1-benzyl-1H-benzo[d]imidazol-2-yl)thio)-N-hydroxybutanamide], which inhibition at 10 µM [1] is on record?
Its inhibition at 10 µM is 6%.

What about the inhibition at 10 µM [2] of the same compound?
The inhibition at 10 µM was 1%.

What about the inhibition at 10 µM [3] of the same compound?
Its inhibition at 10 µM is 19%.

What about the inhibition at 10 µM [4] of the same compound?
The inhibition at 10 µM was 56%.

What about the inhibition at 10 µM [5] of the same compound?
Its inhibition at 10 µM is 4%.

And the inhibition at 10 µM [6]?
Its inhibition at 10 µM is 36%.

And the “acetylated α-tubulin level (Western blot)” value [7]?
The value was “significant increase; also recorded: upregulated acetylated α-tubulin”.

What about the inhibition at 10 µM [8] of the same compound?
The inhibition at 10 µM was 2%.

And the inhibition at 10 µM [9]?
Its inhibition at 10 µM is 37%.

And the inhibition at 10 µM [10]?
Its inhibition at 10 µM is 5%.
